In patent publication US4141899A, “4,5,6,7-Tetrahydroimidazo-[4,5-c]-pyridine derivatives” (Societa' Farmaceutici Italia S.p.A., priority 1976, dated 1979):
Like-named read-outs stand apart in the source and are kept apart here.

Tests used:
Assay type in all cases: in vivo, Sprague-Dawley male rats
[1] = tested on: chromodacryorhea induced by carbacholine; assay: Anticholinergic activity in rats (antagonism against chromodacryorhea induced by carbacholine); details: for ED50: Rattus norvegicus, po, read-out: anticholinergic ED50 p.o. (B); for B/A (ratio of ED50's for oral anti-cholinergic and anti-ulcer activities): B = anticholinergic ED50, A = antiulcer ED50
Excerpt: 3. Anticholinergic activity in rats. […] J. Pharm. […] From 3 to 5 Sprague-Dawley male rats, 250 g body weight, have been employed for each group. […] The compound reference numbers are explained in the Examples below.

restraint ulcer = assay: Inhibition of restraint ulcer in rats; details: Rattus norvegicus
Description: 1. […] Six Sprague-Dawley male rats (100-200 g) fasted for 24 hours were used for each group.
A square flexible small-mesh wire netting was used for immobilization. After 4 hours immobilization the rats were sacrificed, their stomachs were removed, and lesions counted under a dissecting microscope.
The compounds were administered subcutaneously (s.c.) immediately before the immobilization or orally (os) one hour before.

gastric secretion = assay: Inhibition of gastric secretion in rats (pylorus ligature technique); details: Rattus norvegicus, sc, s.c. at the time of pylorus ligature, 4 h, read-out: Antisecretory ED50 s.c.
Description: 2. […] Gastric antisecretory activity was evaluated in rats by the pylorus ligature technique.
Six Sprague-Dawley male rats (110-130 g) were used for each group. Twenty-four hours before the test, the rats were deprived of food but their water supply was maintained.
On the day of the operation, the pylorus was ligated under light ether anaesthesia. Four hours after the ligature, the rats were sacrificed, the stomach secretion was collected and centrifuged at 3500 r.p.m. for 10 minutes, and the volume, less sediment, was determined. The amount of the free hydrochloric acid in the gastric juice was determined by titration against 0.01N sodium hydroxide, using Topfer's Indicator.
Each compound was injected subcutaneously at the time of ligature.

[2] = rats, p.o., carbacholine-induced chromodacryorhea
[3] = po, p.o. one hour before 4 h immobilization, read-out: Antiulcer ED50 p.o (A)
[4] = sc, s.c. immediately before 4 h immobilization, read-out: Antiulcer ED50 s.c.

Structure (SMILES) | ED50 [1, 2] [mg/kg] | B/A (ratio of ED50's for oral anti-cholinergic and anti-ulcer activities) ([1]; rats, p.o.) | ED50 (restraint ulcer; [3]) [mg/kg] | ED50 (restraint ulcer; [4]) [mg/kg] | ED50 (gastric secretion) [mg/kg] | B/A (ratio of ED50's for oral anti-cholinergic and anti-ulcer activities) ([1]; rats, p.o., listed as methiamide) | ED50 [1] [mg/kg] | B/A (ratio of ED50's for oral anti-cholinergic and anti-ulcer activities) ([1]; rats, p.o., listed as atropine)
CCC1c2c(ncn2CC)CCN1C(=S)NC(C)C (stereo not shown) [compound 1399, 3,4-Diethyl-5-(N-isopropyl-thiocarbamoyl)-4,5,6,7-tetrahydroimidazo-[4,5-c]-pyridine] | > 100 | > 25 | 4 | 3.5 |  |  |  | 
CNC(=S)NCCSCc1nc[nH]c1C [Methiamide, reference compound] | 85 | 1.3 | 64 | 14 | 60 | about 2 |  | 
O=C(NC1CC1)N1CCc2[nH]cnc2C1 [compound 1365, 5-(N-cyclopropyl-carbamoyl)-4,5,6,7-tetrahydro-imidazo-[4,5-c]-pyridine] | 21 | 5.5 | 3.8 | 2 | 50 |  |  | 
CCC1c2nc[nH]c2CCN1C(=N)NC(=O)c1ccccc1 (stereo not shown) [compound 1448, 4-Ethyl-5-(N-benzoylguanyl)-4,5,6,7-tetrahydroimidazo-[4,5-c]-pyridine] | > 100 | > 4 | 22 | > 10 | > 50 |  |  | 
CC(C)NC(=S)N1CCc2[nH]cnc2C1 [compound 1087, 5-(N-isopropyl-thiocarbamoyl)-4,5,6,7-tetrahydro-imidazo-[4,5-c]-pyridine] | 2 | 0.6 | 3.1 | 0.9 | 6 |  |  | 
CCC1c2nc[nH]c2CCN1C(=O)NC(C)C (stereo not shown) [compound 1316, 4-Ethyl-5-(N-isopropyl-carbamoyl)-4,5,6,7-tetrahydro-imidazo-[4,5-c]-pyridine] | 70 | 10 | 6.6 | 0.75 | 50 |  |  | 
CCC1c2nc[nH]c2CCN1C(=S)NC(C)C (stereo not shown) [compound 1184, 4-Ethyl-5-(N-isopropyl-thiocarbamoyl)-4,5,6,7-tetrahydro-imidazo-[4,5-c]-pyridine] | 10 |  | 11 | 0.64 | 22 |  |  | 
CNC(=S)N1CCc2[nH]cnc2C1 [compound 1068, 5-(N-methyl-thiocarbamoyl)-4,5,6,7-tetrahydroimidazo-[4,5-c]-pyridine] | > 100 | > 40 | 2.4 | 0.6 | > 50 |  |  | 
CC(C)NC(=O)N1CCc2[nH]cnc2C1 [compound 1348, 5-(N-isopropyl-carbamoyl)-4,5,6,7-tetrahydro-imidazo-[4,5-c]-pyridine] | 7.8 | 14 | 0.55 | 0.1 | 18 |  |  | 
N=C(NC(=O)c1ccccc1)N1CCc2[nH]cnc2C1 [compound 1450, 5-(N-benzoylguanyl)-4,5,6,7-tetrahydroimidazo-[4,5-c]-pyridine] |  |  | 34 | > 10 | > 50 |  |  | 
CCCNC(=S)N1CCc2[nH]cnc2C1 [compound 1361, 5-(N-n-propyl-thiocarbamoyl)-4,5,6,7-tetrahydro-imidazo-[4,5-c]-pyridine] |  |  | 25 | 10 | 50 |  |  | 
S=C(Nc1ccccc1)N1CCc2[nH]cnc2C1 [compound 1116, 5-(N-Phenyl-thiocarbamoyl)-4,5,6,7-tetrahydro-imidazo-[4,5-c]-pyridine] |  |  | > 34 | > 10 | 23 |  |  | 
S=C(NC1CCCC1)N1CCc2[nH]cnc2C1 [compound 1360, 5-(N-cyclopentyl-thiocarbamoyl)-b 4,5,6,7-tetrahydro-imidazo-[4,5-c]-pyridine] | 76 | 13 | 5.6 | > 10 | 19 |  |  | 
CC(C)NC(=S)N1CCc2[nH]cnc2C1C1CCCCC1 (stereo not shown) [compound 1367, 4-Cyclohexyl-5-(N-isopropyl-thiocarbamoyl)-4,5,6,7-tetrahydro-imidazo-[4,5-c]-pyridine] | > 100 | > 18 | 6 | 3.3 | > 50 |  |  | 
CC(C)NC(=O)N1CCc2[nH]cnc2C1c1ccncc1 (stereo not shown) [compound 1467, 4-(4-pyridyl)-5-(N-isopropyl-carbamoyl)-4,5,6,7-tetrahydroimidazo-[4,5-c]-pyridine] |  |  | 50 | 7 | > 50 |  |  | 
CCC1c2c(ncn2CC)CCN1C(=O)NC(C)C (stereo not shown) [compound 1400, 3,4-Diethyl-5-(N-isopropyl-carbamoyl)-4,5,6,7-tetrahydro-imidazo-[4,5-c]-pyridine] | > 100 | > 5.5 | 18 | 10 | 50 |  |  | 
CCNC(=S)N1CCc2[nH]cnc2C1 [compound 1293, 5-(N-ethyl-thiocarbamoyl)-4,5,6,7-tetrahydro-imidazo-[4,5-c]-pyridine] |  |  | 25 | 6 | 8 |  |  | 
CNC(=O)N1CCc2[nH]cnc2C1 [compound 1350, 5-(N-methyl-carbamoyl)-4,5,6,7-tetrahydro-imidazo-[4,5-c]-pyridine] | > 100 | > 18 | 5.6 | 6.5 | > 50 |  |  | 
S=C(NC1CC1)N1CCc2[nH]cnc2C1 [compound 1359, 5-(N-cyclopropyl-thiocarbamoyl)-4,5,6,7-tetrahydro-imidazo-[4,5-c]-pyridine] | 45.5 | 25 | 1.8 | 5 | 40 |  |  | 
CC(C)NC(=S)N1CCc2ncn(C)c2C1 [compound 1286] | > 50 | > 5.8 | 8.5 | 0.85 | 34 |  |  | 
CCC1c2c(ncn2C)CCN1C(=O)NC(C)C (stereo not shown) [compound 1404, 3-Methyl-4-ethyl-5-(N-isopropyl-carbamoyl)-4,5,6,7-tetrahydroimidazo-[4,5-c]-pyridine] |  |  | 34 | 10 | > 50 |  |  | 
O=C(NC1CCCC1)N1CCc2[nH]cnc2C1 [compound 1366, 5-(N-cyclopentyl-carbamoyl)-4,5,6,7-tetrahydro-imidazo-[4,5-c]-pyridine] | 10 | 2.6 | 3.8 | 0.75 | 17 |  |  | 
CN1[C@@H]2CC[C@H]1C[C@@H](OC(=O)C(CO)c1ccccc1)C2 (stereo partly shown) [Atropine, reference compound] |  | 2 | 0.4 | 0.02 | 0.1 |  | 0.8 | about 2
